Values joined by “and” are separate entries in the source; they are usually repeats but may differ in a detail not shown here. Equal entries are not always repeated. Structures can show the parent of a compound that is named as a salt.
Tests used:
Type in all cases: physicochemical
[1] = Polymorph screening test, suspension method (crystal form by XRPD after stirring in solvent); details: for Crystal form (XRPD) / Crystal form (XRPD)/85° C.: mesylate screening, 3 days
[2] = Dynamic vapor sorption (DVS) hygroscopicity test; details: 25° C. and 80% RH
Description: In the present disclosure, the DVS test parameters are set as follows: [table]

[3] = Stability of crystal forms under stability test conditions (appearance, XRPD, HPLC)
[4] = Solubility of mesylate crystal form A in buffers with different pH values at 37° C.
Protocol: Suspension states at 15 min, 2 h, 4 h, and 24 h were recorded; and different sample solutions at 15 min, 2 h, 4 h, and 24 h were collected and added to 1.5 mL centrifuge tubes. The suspensions were centrifuged at 12000 rpm for 2 min to obtain supernatants, and the supernatants were subjected to 2-fold dilution to obtain the sample solutions (the solutions were subjected to 10-fold dilution if the samples were dissolved completely). The residual substrates were centrifuged and subjected to the XRPD test.

[5] = Polymorph screening test, diffusion method (crystal form by XRPD); details: mesylate screening, diffusion at room temperature
[6] = Polymorph screening test, suspension method (crystal form by XRPD after stirring in solvent); details: mesylate screening, suspension in Toluene, 3 days

Cc1cc(Nc2ncc(Cl)c(Nc3ccccc3S(=O)(=O)C(C)C)n2)c(OC(C)C)cc1C1=CCN(C2CCOCC2)CC1 [one equivalent of mesylate crystal form A]
stability of crystal form in solvent, suspension method ([1]; ethanol, isopropanol, ethyl acetate, isopropyl acetate, methyl tert-butyl ether, tetrahydrofuran, N-methylpyrrolidone, methyl acetate, 2-methyltetrahydrofuran, cyclohexane, n-hexane, toluene, or n-heptane): relatively good stability | crystal form when stirred in solvent ([1]; ethanol, isopropanol, ethyl acetate, isopropyl acetate, methyl tert-butyl ether, tetrahydrofuran, N-methylpyrrolidone, methyl acetate, 2-methyltetrahydrofuran, cyclohexane, n-hexane, toluene, or n-heptane at 25-50° C.): remained stable | Crystal form (XRPD) ([1]; suspension in 1,4-Dioxane, 25° C.): Crystal form A | Crystal form (XRPD) ([1]; suspension in 1,4-Dioxane, 50° C.): Crystal form E | Crystal form (XRPD) ([1]; suspension in Acetone-water 1:1, 25° C.): Clear solution | Crystal form (XRPD) ([1]; suspension in Acetone-water 1:1, 50° C.): Clear solution | Crystal form (XRPD) ([1]; suspension in Acetonitrile-water 1:1, 25° C.): Clear solution | Crystal form (XRPD) ([1]; suspension in Acetonitrile-water 1:1, 50° C.): Clear solution | Crystal form (XRPD) ([1]; suspension in Dichloromethane, 25° C.): No solid sample | Crystal form (XRPD) ([1]; suspension in Dichloromethane, 50° C.): No solid sample | Crystal form (XRPD) ([1]; suspension in Dichloromethane/acetone (v/v, 1:1), 25° C.): Crystal form A | Crystal form (XRPD) ([1]; suspension in Dichloromethane/acetone (v/v, 1:1), 50° C.): No solid sample | Crystal form (XRPD) ([1]; suspension in Dichloromethane/methanol (v/v, 1:1), 25° C.): Clear solution | Crystal form (XRPD) ([1]; suspension in Dichloromethane/methanol (v/v, 1:1), 50° C.): No solid sample | Crystal form (XRPD)/85° C. ([1]; suspension in Dioxane): Crystal form A | Crystal form (XRPD)/85° C. ([1]; suspension in MIBK): Crystal form A | Crystal form (XRPD) ([1]; suspension in Methanol-water 1:1, 25° C.): Crystal form B | Crystal form (XRPD) ([1]; suspension in Methanol-water 1:1, 50° C.): Clear solution | Crystal form (XRPD) ([1]; suspension in Methyl tert-butyl ether, 25° C.): Crystal form A | Crystal form (XRPD) ([1]; suspension in Methyl tert-butyl ether, 50° C.): Crystal form A | Crystal form (XRPD) ([1]; suspension in Tetrahydrofuran, 25° C.): Crystal form A | Crystal form (XRPD) ([1]; suspension in Tetrahydrofuran, 50° C.): Crystal form A | Crystal form (XRPD) ([1]; suspension in Toluene, 25° C.): Crystal form A | Crystal form (XRPD) ([1]; suspension in Toluene, 50° C.): Crystal form A | Crystal form (XRPD) ([1]; suspension in Water, 25° C.): Crystal form B | Crystal form (XRPD) ([1]; suspension in Water, 50° C.): Crystal form B | Crystal form (XRPD) ([1]; suspension in n-Heptane, 25° C.): Crystal form A | Crystal form (XRPD) ([1]; suspension in n-Heptane, 50° C.): Crystal form A | Crystal form (XRPD)/85° C. ([1]; suspension in n-Heptane): Crystal form A | crystal form when stirred in solvent ([1]; toluene or n-heptane at 25-85° C.): remained stable | hygroscopic weight gain (DVS curve) [2]: 0.31±0.005% and 0.31% | Crystal form result by XRPD test ([3]; 25° C./60% RH, 1 month): Crystal form A | Crystal form result by XRPD test ([3]; 25° C./60% RH, 2 months): Crystal form A | Crystal form result by XRPD test ([3]; 25° C./60% RH, 3 months): Crystal form A | Crystal form result by XRPD test ([3]; 25° C./60% RH, 6 months): Crystal form A | Crystal form result by XRPD test ([3]; 25° C./60% RH, 5 days): Crystal form A | Crystal form result by XRPD test ([3]; 25° C./60% RH, 10 days): Crystal form A | Crystal form result by XRPD test ([3]; 40° C./75% RH, 1 month): Crystal form A | Crystal form result by XRPD test ([3]; 40° C./75% RH, 2 months): Crystal form A | Crystal form result by XRPD test ([3]; 40° C./75% RH, 3 months): Crystal form A | Crystal form result by XRPD test ([3]; 40° C./75% RH, 6 months): Crystal form A | Crystal form result by XRPD test ([3]; 40° C./75% RH, 5 days): Crystal form A | Crystal form result by XRPD test ([3]; 40° C./75% RH, 10 days): Crystal form A | Crystal form result by XRPD test ([3]; 60° C., 1 month): Crystal form A | Crystal form result by XRPD test ([3]; 60° C., 2 months): Crystal form A | Crystal form result by XRPD test ([3]; 60° C., 3 months): Crystal form A | Crystal form result by XRPD test ([3]; 60° C., 6 months): Crystal form A | Crystal form result by XRPD test ([3]; 60° C., 5 days): Crystal form A | Crystal form result by XRPD test ([3]; 60° C., 10 days): Crystal form A | Crystal form result by XRPD test ([3]; 90% RH, 1 month): Crystal form A | Crystal form result by XRPD test ([3]; 90% RH, 2 months): Crystal form A | Crystal form result by XRPD test ([3]; 90% RH, 3 months): Crystal form A | Crystal form result by XRPD test ([3]; 90% RH, 5 days): Crystal form A | Crystal form result by XRPD test ([3]; 90% RH, 10 days): Crystal form A | Concentration ([4]; 0.01N hydrochloric acid, 15 min): >6 | Concentration ([4]; 0.01N hydrochloric acid, 2 h): >6 | Concentration ([4]; 0.01N hydrochloric acid, 4 h): >6 | Concentration ([4]; 0.01N hydrochloric acid, 24 h): >6 | Concentration ([4]; Pure water, 15 min): 0.747 | Concentration ([4]; Pure water, 2 h): 4.930 | Concentration ([4]; Pure water, 4 h): 4.657 | Concentration ([4]; Pure water, 24 h): 4.567 | Concentration ([4]; pH 1.2, 15 min): >6 | Concentration ([4]; pH 1.2, 2 h): >6 | Concentration ([4]; pH 1.2, 4 h): >6 | Concentration ([4]; pH 1.2, 24 h): >6 | Concentration ([4]; pH 4.5, 15 min): >6 | Concentration ([4]; pH 4.5, 2 h): 0.044 | Concentration ([4]; pH 4.5, 4 h): 0.046 | Concentration ([4]; pH 6.8, 15 min): 0.003 | Concentration ([4]; pH 6.8, 2 h): 0.005 | Concentration ([4]; pH 6.8, 4 h): 0.005 | Concentration ([4]; pH 6.8, 24 h): 0.015 | Crystal form (XRPD) ([5]; good solvent Dichloromethane, poor solvent Acetone): Crystal form A | Crystal form (XRPD) ([5]; good solvent Dichloromethane, poor solvent Acetonitrile): Crystal forms A + B | Crystal form (XRPD) ([5]; good solvent Dichloromethane, poor solvent Ethanol): Crystal form A | Crystal form (XRPD) ([5]; good solvent Dichloromethane, poor solvent Ethyl acetate): Crystal forms A + B | Crystal form (XRPD) ([5]; good solvent Dichloromethane, poor solvent Tetrahydrofuran): Crystal forms A + B | Crystal form (XRPD) ([5]; good solvent Dimethyl sulfoxide, poor solvent Acetone): Clear solution | Crystal form (XRPD) ([5]; good solvent Dimethyl sulfoxide, poor solvent Acetonitrile): Clear solution | Crystal form (XRPD) ([5]; good solvent Dimethyl sulfoxide, poor solvent Ethanol): Clear solution | Crystal form (XRPD) ([5]; good solvent Dimethyl sulfoxide, poor solvent Ethyl acetate): Clear solution | Crystal form (XRPD) ([5]; good solvent Dimethyl sulfoxide, poor solvent Tetrahydrofuran): Clear solution | Crystal form (XRPD) ([5]; good solvent Methanol, poor solvent Acetone): Clear solution | Crystal form (XRPD) ([5]; good solvent Methanol, poor solvent Acetonitrile): Clear solution | Crystal form (XRPD) ([5]; good solvent Methanol, poor solvent Ethyl acetate): Clear solution | Crystal form (XRPD) ([5]; good solvent Methanol, poor solvent Tetrahydrofuran): Clear solution | Crystal form (XRPD) ([5]; good solvent N,N-Dimethylformamide, poor solvent Acetone): Clear solution | Crystal form (XRPD) ([5]; good solvent N,N-Dimethylformamide, poor solvent Acetonitrile): Clear solution | Crystal form (XRPD) ([5]; good solvent N,N-Dimethylformamide, poor solvent Ethanol): Clear solution | Crystal form (XRPD) ([5]; good solvent N,N-Dimethylformamide, poor solvent Ethyl acetate): Clear solution | Crystal form (XRPD) ([5]; good solvent N,N-Dimethylformamide, poor solvent Tetrahydrofuran): Clear solution | Crystal form (XRPD)/85° C. [6]: Crystal form A

— patent US20260217692A1 (Ascentage Pharma (Suzhou) Co., Ltd., priority 2023, published 2026)
